Columns and labels:
NKGD2-MICA = target: T1, NKGD2-MICA (Homo sapiens, UniProt P26718); assay: Inhibition of NKG2D (unknown origin)/MICA (unknown origin) protein-protein interaction by cell-based TR-FRET assay
T1 sequence (P26718 whole entry): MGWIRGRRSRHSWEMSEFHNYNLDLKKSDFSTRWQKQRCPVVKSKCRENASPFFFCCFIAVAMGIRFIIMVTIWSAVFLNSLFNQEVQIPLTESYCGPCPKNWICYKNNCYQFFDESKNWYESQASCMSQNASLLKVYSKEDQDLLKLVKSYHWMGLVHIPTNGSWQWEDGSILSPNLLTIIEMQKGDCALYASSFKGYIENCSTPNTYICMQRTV
T1 sequence (Q29983 whole entry): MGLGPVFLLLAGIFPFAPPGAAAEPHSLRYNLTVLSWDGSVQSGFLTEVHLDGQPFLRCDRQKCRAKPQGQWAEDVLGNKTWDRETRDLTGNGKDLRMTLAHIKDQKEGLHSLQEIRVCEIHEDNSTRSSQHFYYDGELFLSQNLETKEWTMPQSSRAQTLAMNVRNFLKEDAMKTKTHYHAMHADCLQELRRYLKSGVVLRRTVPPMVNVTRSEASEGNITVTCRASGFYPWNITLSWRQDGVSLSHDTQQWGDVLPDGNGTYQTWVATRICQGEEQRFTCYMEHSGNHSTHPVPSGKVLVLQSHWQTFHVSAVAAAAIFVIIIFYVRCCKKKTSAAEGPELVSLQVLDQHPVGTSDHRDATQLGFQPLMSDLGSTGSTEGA

NKGD2-ULBP6 = target: T2, NKGD2-ULBP6 (Homo sapiens, UniProt P26718); assay: Inhibition of NKG2D (unknown origin)/ULBP6 (unknown origin) protein-protein interaction by cell-based TR-FRET assay
T2 sequence (P26718 whole entry): T1 sequence (P26718 whole entry)
T2 sequence (Q5VY80 whole entry): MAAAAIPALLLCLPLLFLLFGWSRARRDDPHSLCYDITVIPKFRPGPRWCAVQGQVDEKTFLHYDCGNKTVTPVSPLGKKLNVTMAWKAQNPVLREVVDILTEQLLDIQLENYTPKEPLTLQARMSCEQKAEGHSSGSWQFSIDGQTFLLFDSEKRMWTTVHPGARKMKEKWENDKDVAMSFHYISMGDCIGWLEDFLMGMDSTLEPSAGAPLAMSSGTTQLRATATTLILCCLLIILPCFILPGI

SMILES	IC50 (NKGD2-MICA) [µM]	IC50 (NKGD2-ULBP6) [µM]
CN(C)C(=O)C(NC(=O)c1cc(-c2ccnn2C2COC2)ccc1-c1ccc(C(F)(F)F)cc1)c1cccc(C(F)(F)F)c1 (racemic)	0.5	1.1
O=C(N[C@H](C(=O)N1C[C@@H]2[C@H](CO)[C@@H]2C1)c1cccc(C(F)(F)F)c1)c1ccccc1-c1ccc(C(F)(F)F)cc1	1.6	3.1
CN(C)C(=O)C(C)(NC(=O)c1ccccc1-c1ccc(C(F)(F)F)cc1)c1cccc(C(F)(F)F)c1 (stereo unspecified)	> 20	> 20
CN(C)C(=O)[C@@H](NC(=O)c1nnccc1-c1ccc(C(F)(F)F)cc1)c1cccc(C(F)(F)F)c1	0.4	1.5
CN(C)C(=O)[C@@H](NC(=O)c1cnccc1-c1ccc(C(F)(F)F)cc1)c1cc(Cl)cc(C(F)(F)F)c1	0.1	0.2
CN(C)C(=O)[C@@H](NC(=O)c1ccccc1-c1ccc(C(F)(F)F)cc1)c1cccc(C2CC2)c1	1.8	4.2
CN(C)C(=O)[C@@H](NC(=O)c1cnccc1-c1ccc(C(F)(F)F)cc1)c1cc(F)cc(C(F)(F)F)c1	0.2	0.7
O=C(NC(C(=O)N1CC[C@H](CO)C1)c1cccc(C(F)(F)F)c1)c1ccccc1-c1ccc(C(F)(F)F)cc1 (stereo partly specified)	10.5	> 20
CN(C)C(=O)[C@@H](NC(=O)c1cc(-c2nnn[nH]2)ccc1-c1ccc(C(F)(F)F)cc1)c1cccc(C(F)(F)F)c1	0.5	1.5
CN(C)C(=O)[C@@H](NC(=O)c1cnccc1-c1ccc(C(F)(F)F)cc1)c1cccc(C(F)(F)F)c1	0.4	1.4
CN(C)C(=O)C(NC(=O)c1ccc(-c2ccc(C(F)(F)F)cc2)cc1)c1cccc(C(F)(F)F)c1 (stereo unspecified)	> 20	> 20
CN(C)C(=O)[C@@H](NC(=O)c1ccccc1-c1ccc(C(F)(F)F)cc1)c1cccc(N2CC(CC(F)(F)F)C2)c1	1.6	3.4
Cc1ccc([C@H](NC(=O)c2cnccc2-c2ccc(C(F)(F)F)cc2)C(=O)N(C)C)cc1C(F)(F)F	0.3	0.8
CN(C)C(=O)[C@@H](NC(=O)c1cnccc1-c1ccc(C(F)(F)F)cc1)c1cc(Cl)c(Cl)c(C(F)(F)F)c1	0.1	0.2
Cc1n[nH]cc1-c1ccc(-c2ccc(C(F)(F)F)cc2)c(C(=O)NC(C(=O)N(C)C)c2cccc(C(F)(F)F)c2)c1 (racemic)	0.9	2.8
CN(C)C(=O)[C@@H](NC(=O)c1cc(-c2nnnn2C)ccc1-c1ccc(C(F)(F)F)cc1)c1cccc(C(F)(F)F)c1	0.9	2.4
CC1(C)C[C@H](CO)N(C(=O)C(NC(=O)c2ccccc2-c2ccc(C(F)(F)F)cc2)c2cccc(C(F)(F)F)c2)C1 (stereo partly specified)	> 20	> 20
O=C(N[C@H](C(=O)N1C[C@@H]2[C@@H](CO)[C@@H]2C1)c1cccc(C(F)(F)F)c1)c1ccccc1-c1ccc(C(F)(F)F)cc1	1.1	3.1
CN(C)C(=O)[C@@H](NC(=O)c1cnccc1-c1ccc(C(F)(F)F)cc1)c1ccc(Cl)c(C(F)(F)F)c1	0.1	0.3
CN(C)C(=O)[C@@H](NC(=O)c1ccccc1-c1ccc(C(F)(F)F)cc1)c1cccc(C(F)(F)F)c1	1.2	2.7

Further lines, results first:

IC50 (NKGD2-MICA) [µM]	IC50 (NKGD2-ULBP6) [µM]	SMILES
2.2	5	CN(C)C(=O)C(NC(=O)c1ccccc1-c1ccc(C(F)(F)F)cc1)c1cccc(C(F)(F)F)c1 (racemic)
0.2	0.5	CN(C)C(=O)[C@@H](NC(=O)c1cnccc1-c1ccc(C(F)(F)F)cc1)c1cc(C(F)(F)F)cc(C(F)(F)F)c1
> 20	> 20	CN(C)C(=O)C(NC(=O)c1ccccc1-c1ccccc1)c1cccc(C(F)(F)F)c1 (stereo unspecified)
> 20	> 20	CN(C)C(=O)C(NC(=O)c1cccc(-c2ccc(C(F)(F)F)cc2)c1)c1cccc(C(F)(F)F)c1 (stereo unspecified)
0.4	0.6	Cc1n[nH]c(C)c1-c1ccc(-c2ccc(C(F)(F)F)cc2)c(C(=O)N[C@H](C(=O)N(C)C)c2cccc(C(F)(F)F)c2)c1
> 20	> 20	CN(C)C(=O)C(NC(=O)c1cncnc1-c1ccc(C(F)(F)F)cc1)c1cccc(C(F)(F)F)c1 (racemic)
> 20	> 20	CN(C)C(=O)C(NS(=O)(=O)c1ccccc1-c1ccc(C(F)(F)F)cc1)c1cccc(C(F)(F)F)c1 (stereo unspecified)
> 20	> 20	O=C(NCc1cccc(C(F)(F)F)c1)c1ccccc1-c1ccc(C(F)(F)F)cc1
14.5	> 20	O=C(NC(C(=O)N1CCC[C@H]1CO)c1cccc(C(F)(F)F)c1)c1ccccc1-c1ccc(C(F)(F)F)cc1 (stereo partly specified)
0.2	0.4	CN(C)C(=O)[C@@H](NC(=O)c1cnccc1-c1ccc(C(F)(F)F)cc1)c1ccc(F)c(C(F)(F)F)c1
> 20	> 20	CN(C)C(=O)C(NC(=O)c1cccnc1-c1ccc(C(F)(F)F)cc1)c1cccc(C(F)(F)F)c1 (racemic)
> 20	> 20	CN(C)C(=O)[C@@H](NC(=O)c1ccccc1-c1ccc(C(F)(F)F)cc1)c1ccccc1 (racemic)
> 20	> 20	CN(C)C(=O)C(NC(=O)c1ccccc1)c1cccc(C(F)(F)F)c1 (stereo unspecified)
0.5	–	CN(C)C(=O)[C@@H](NC(=O)c1ccccc1-c1ccc(C(F)(F)F)cc1)c1ccc(Cl)c(C(F)(F)F)c1
0.2	0.4	CN(C)C(=O)[C@@H](NC(=O)c1cnccc1-c1ccc(C(F)(F)F)cc1)c1ccc(Cl)c(Cl)c1
1	3.8	CN(C)C(=O)[C@@H](NC(=O)c1ncccc1-c1ccc(C(F)(F)F)cc1)c1cccc(C(F)(F)F)c1
0.3	0.7	CN(C)C(=O)[C@@H](NC(=O)c1cc(-c2ccnn2C)ccc1-c1ccc(C(F)(F)F)cc1)c1cccc(C(F)(F)F)c1
4	8.7	O=C(NC(C(=O)N1CCC[C@@H]1CO)c1cccc(C(F)(F)F)c1)c1ccccc1-c1ccc(C(F)(F)F)cc1 (stereo partly specified)
> 20	> 20	CN(C)C(=O)CNC(=O)c1ccccc1-c1ccc(C(F)(F)F)cc1
0.1	0.4	Cc1cc([C@H](NC(=O)c2cnccc2-c2ccc(C(F)(F)F)cc2)C(=O)N(C)C)cc(C(F)(F)F)c1
> 20	> 20	CN(C)C(=O)C(c1cccc(C(F)(F)F)c1)N(C)C(=O)c1ccccc1-c1ccc(C(F)(F)F)cc1 (stereo unspecified)
3.4	8.2	O=C(NC(C(=O)N1CCC1)c1cccc(C(F)(F)F)c1)c1ccccc1-c1ccc(C(F)(F)F)cc1 (racemic)
0.7	1.7	CN(C)C(=O)[C@@H](NC(=O)c1cc(C(=O)NS(C)(=O)=O)ccc1-c1ccc(C(F)(F)F)cc1)c1cccc(C(F)(F)F)c1
3.3	5.8	CN(C)C(=O)[C@@H](NC(=O)c1ccccc1-c1ccc(C(F)(F)F)cc1)c1ccc(Cl)cc1
1.6	4.8	CN(C)C(=O)[C@@H](NC(=O)c1ccncc1-c1ccc(C(F)(F)F)cc1)c1cccc(C(F)(F)F)c1
2.5	5.1	O=C(NC(C(=O)N1CCCC1)c1cccc(C(F)(F)F)c1)c1ccccc1-c1ccc(C(F)(F)F)cc1 (racemic)

Source: ChEMBL document CHEMBL5390216, “Development of small molecule inhibitors of natural killer group 2D receptor (NKG2D)” (Bioorg Med Chem Lett, 2023)
